The source of these data is patent US7501431B2, “Physiologically active substances PF1270A, B and C substances” (Meui Seika Kaisha, Ltd., priority 2003, dated 2009).

Molecules are shown by their SMILES. Like-named read-outs stand apart in the source and are kept apart here.

One data set concerns the target T1, histamine H3 receptor (Rattus norvegicus, UniProt Q9QYN8).
T1 construct: Rat fore-brain was homogenized in 10 volumes of 0.32 M sucrose solution; from tissue; host or cells: rat fore-brain membrane fraction
Nature of the data set: N^α-methylhistamine binding inhibition test ([3H]N^α-methylhistamine, rat fore-brain membrane fraction). The source says:
The PF1270A, B and C substances obtained by the invention have affinity for histamine H3 receptor. Affinity of the PF1270A, B and C substances for histamine H3 receptor was examined by a binding inhibition test of a histamine H3 receptor ligand, N^α-methylhistamine.
Test Example N^α-methylhistamine Binding Inhibition Activity
Rat fore-brain was homogenized in 10 volumes of 0.32 M sucrose solution using a Teflon-glass homogenizer, and the thus obtained homogenate was centrifuged at 1000×g for 10 minutes. The supernatant was centrifuged at 39000×g for 20 minutes to obtain the precipitate. This precipitate was washed with an assay buffer (50 mM Tris (pH 7.4), 5 mM EDTA) by centrifugation. This operation was further carried out twice, and the finally obtained membrane fraction was used as the histamine H3 receptor membrane fraction.
The binding inhibition test was carried out using the thus obtained membrane fraction and a radioactive ligand [^3H]N^α-methylhistamine (manufactured by Perkin-Elmer Life Science). In the presence of PF1270A, B or C substance, the membrane fraction (55 μg as protein) and 1 nM in final concentration of [^3H]N^α-methylhistamine were added to 150 μl of the assay buffer and incubated at room temperature for 60 minutes. This was filtered using a unifilter GF/B filter (manufactured by Perkin-Elmer) coated with 0.3% polyethyleneimine and washed three times with 200 μl of the assay buffer. After drying at 50° C. for 1 hour, 30 μl of Microscinti-20 (manufactured by Perkin-Elmer) was added thereto as the scintillator, and the radioactivity was counted using Top Count (manufactured by Perkin-Elmer). The nonspecific binding was determined by adding a large excess of thioperamide (10 μM in final concentration). The binding inhibition ratio of N^α-methylhistamine in the presence of PF1270A, B or C substance was calculated based on the following formula. […]

A short description of data set [1]: Solubility (physicochemical properties).
[2] abbreviates: rat fore-brain histamine H3 receptor membrane fraction, 1 nM [3H]N^α-methylhistamine, room temperature 60 minutes, read-out: N^α-methylhistamine binding inhibition activity, IC50 (converted).

A word on the IC50: it is the midpoint of a concentration-inhibition curve.

T1 sequence (Q9QYN8 whole entry): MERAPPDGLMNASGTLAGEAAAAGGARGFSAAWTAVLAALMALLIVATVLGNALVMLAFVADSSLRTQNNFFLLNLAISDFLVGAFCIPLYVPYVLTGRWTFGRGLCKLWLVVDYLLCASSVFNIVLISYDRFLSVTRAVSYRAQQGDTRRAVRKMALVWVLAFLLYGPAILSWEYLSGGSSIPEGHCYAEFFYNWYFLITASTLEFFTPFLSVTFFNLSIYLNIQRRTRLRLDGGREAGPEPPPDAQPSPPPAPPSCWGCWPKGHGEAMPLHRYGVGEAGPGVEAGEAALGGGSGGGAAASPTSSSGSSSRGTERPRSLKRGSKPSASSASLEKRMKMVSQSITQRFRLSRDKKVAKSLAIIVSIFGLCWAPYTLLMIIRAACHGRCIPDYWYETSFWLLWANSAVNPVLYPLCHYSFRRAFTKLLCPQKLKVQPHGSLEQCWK

Regarding `CCC(=O)OC1CC(C)N2CC3(NC)CC4(C(=O)Nc5c(C(=O)C6OC6(C)C)cccc54)C(C)(C=O)C3CC2C1` (stereo not drawn) [PF1270B], the IC50 at histamine H3 receptor (setting [2]) was 399 nM. Also, in data set [1], the “Solubility in chloroform and methanol” value is given as “soluble”; the Solubility in water result was “hardly soluble”.

Take `CNC12CN3C(C)CC(OC(C)=O)CC3CC1C(C)(C=O)C1(C2)C(=O)Nc2c(C(=O)C3OC3(C)C)cccc21` (stereo not drawn) [PF1270C]: the IC50 at histamine H3 receptor (setting [2]) is 763 nM. In addition, in data set [1], the “Solubility in chloroform and methanol” value is listed as “soluble”; the Solubility in water entry was “hardly soluble”.

Consider `CCCC(=O)OC1CC(C)N2CC3(NC)CC4(C(=O)Nc5c(C(=O)C6OC6(C)C)cccc54)C(C)(C=O)C3CC2C1` (stereo not drawn) [PF1270A], for which, at histamine H3 receptor, the IC50 was 83.1 nM. Besides, in data set [1], the “Solubility in chloroform and methanol” value is “soluble”; the Solubility in water entry is recorded as “hardly soluble”.
